Structures can show the parent of a compound that is named as a salt.
Legend:
[1] = test system: HL60, Du 145, HT 29 and MCF 7 cell lines; assay: Sensitivity and apoptosis in all assayed stabilized human neoplastic cell lines; format: cell-based
Method: The effects of L-aC on stabilized human neoplastic cell lines were tested using the methylene blue assay.
Acute promyelocytic leukemia cell line (HL60) and prostate (Du 145), colon (HT 29) and breast (MCF 7) adenocarcinoma cell lines have been used.
Cell suspensions at concentrations of 10^5 cells/ml were prepared.
100 μl of the obtained cell suspension were inoculated on 96 well plates and incubated at 37° for 12 hours, to obtain cell adhesion to the plates. After 12 hours, L-aC was added at the concentrations of 0.2 mg/ml, 2 mg/ml, 20 mg/ml. After 72 hours, the culture medium was removed and 100 μl of 100% ethanol were added for 30 min. Subsequently ethanol was removed and 1% methylene-blue was added for 2 hours. The dye was then removed and the plates were dried before adding 1M HCl.
The induction of apoptosis has been detected due to nuclear cromatin condensation, cytoplasmic shrinking, endoplasmic reticulum dilatation and membrane blebbing together with DNA fragmentation.

[2] = test system: Yoshida tumour; assay: Chemopreventive effects on Yoshida tumour inoculation and thriving; format: in vivo, Sprague-Dowley rats; conditions: for animals showing ascites: day 8 after inoculation
Method: In order to elucidate the actual chemoprevention antitumour Potentialities of L-aC, 125 Sprague-Dowley rats (4 months old, mean weight: 200 g), under standard feeding and temperature conditions (25° C.), were divided in 5 groups and treated as follows:
Group 1: 25 rats were intraperitoneally treated, on alternate days for 10 days, with 25 mg of L-aC diluted in 5 ml of saline solution. On day 10 they were inoculated with Yoshida tumour.
Group 2: 25 rats were intraperitoneally treated, on alternate days for 10 days, with 25 mg of L-aC diluted in 5 ml of saline solution. On day 10 they were inoculated with Yoshida tumour. Starting from day 11, they were further treated intraperitoneally, on alternate days, with 25 mg of L-aC diluted in 5 ml of saline solution, for a further 10 days.
Group 3: 25 previously untreated rats were inoculated, on day 10, with Yoshida tumour. Starting from day 14 they were intraperitoneally treated, on alternate days, with 25 mg of L-aC diluted in 5 ml of saline solution for 10 days.
Group 4: 25 previously untreated rats were inoculated on day 10 with Yoshida tumour. On day 18 to 24 they were intraperitoneally treated, on alternate days, with 25 mg of L-aC diluted in 5 ml of saline solution for 10 days.
Group 5: 25 previously untreated rats were inoculated on day 10 with Yoshida tumour. On day 18 to 24 they were subjected to emptying, on alternate days, of 5 ml of ascitic fluid which was substituted with 50 mg of L-aC diluted in 5 ml of saline solution.
The onset and evolution of the tumour were checked by daily observation and weighing.

CC(=O)OC(CC(=O)[O-])C[N+](C)(C)C [L-aC, L-acetylcarnitine hydrochloride]
programmed cell death phenomena ([1]; 0.2 mg/ml, all assayed cell lines): Phenomena suggestive of programmed cell death were already observed
programmed cell death phenomena ([1]; 2 mg/ml): more marked and evident
change of effect over concentration range ([1]; 2 to 20 mg/ml): No significant changes
sensitivity of the tested cell lines ([1]; all tested cell lines): sensitive
necroscopy finding ([2]; 6 animals sacrified at end of observation): no presence of the disease
animals showing ascites ([2]; Group 1 (25 mg L-aC i.p. alternate days 10 days before inoculation)): 4/25
surviving animals ([2]; Group 1, 25 mg L-aC i.p. alternate days for 10 days, inoculated day 10, day 01 of observation): 25
surviving animals ([2]; Group 1, 25 mg L-aC i.p. alternate days for 10 days, inoculated day 10, day 03): 25
surviving animals ([2]; Group 1, 25 mg L-aC i.p. alternate days for 10 days, inoculated day 10, day 05): 25
surviving animals ([2]; Group 1, 25 mg L-aC i.p. alternate days for 10 days, inoculated day 10, day 07): 25
surviving animals ([2]; Group 1, 25 mg L-aC i.p. alternate days for 10 days, inoculated day 10, day 09): 25
surviving animals ([2]; Group 1, 25 mg L-aC i.p. alternate days for 10 days, inoculated day 10, day 10): 25
surviving animals ([2]; Group 1, 25 mg L-aC i.p. alternate days for 10 days, inoculated day 10, day 11): 25
surviving animals ([2]; Group 1, 25 mg L-aC i.p. alternate days for 10 days, inoculated day 10, day 14): 25
surviving animals ([2]; Group 1, 25 mg L-aC i.p. alternate days for 10 days, inoculated day 10, day 18): 25
surviving animals ([2]; Group 1, 25 mg L-aC i.p. alternate days for 10 days, inoculated day 10, day 21): 20
surviving animals ([2]; Group 1, 25 mg L-aC i.p. alternate days for 10 days, inoculated day 10, day 24): 15
surviving animals ([2]; Group 1, 25 mg L-aC i.p. alternate days for 10 days, inoculated day 10, day 27): 13
surviving animals ([2]; Group 1, 25 mg L-aC i.p. alternate days for 10 days, inoculated day 10, day 30): 13
surviving animals ([2]; Group 1, 25 mg L-aC i.p. alternate days for 10 days, inoculated day 10, day 45): 13
animals free from the disease and still alive ([2]; Group 1, of 21 ascites-free animals, day 27 of observation): 13
animals with late ascites that died ([2]; Group 1, of 21 ascites-free animals, within day 27 of observation): 8
day of observation by which ascitic animals died ([2]; Group 1, the 4 animals with ascites): ≤ 26 days
animals showing ascites ([2]; Group 2 (25 mg L-aC i.p. alternate days 10 days before and 10 days after inoculation)): 5/25
surviving animals ([2]; Group 2, 25 mg L-aC i.p. alternate days 10 days before and 10 days after inoculation (day 10), day 01 of observation): 25
surviving animals ([2]; Group 2, 25 mg L-aC i.p. alternate days 10 days before and 10 days after inoculation (day 10), day 03): 25
surviving animals ([2]; Group 2, 25 mg L-aC i.p. alternate days 10 days before and 10 days after inoculation (day 10), day 05): 25
surviving animals ([2]; Group 2, 25 mg L-aC i.p. alternate days 10 days before and 10 days after inoculation (day 10), day 07): 25
surviving animals ([2]; Group 2, 25 mg L-aC i.p. alternate days 10 days before and 10 days after inoculation (day 10), day 09): 25
surviving animals ([2]; Group 2, 25 mg L-aC i.p. alternate days 10 days before and 10 days after inoculation (day 10), day 10): 25
surviving animals ([2]; Group 2, 25 mg L-aC i.p. alternate days 10 days before and 10 days after inoculation (day 10), day 11): 25
surviving animals ([2]; Group 2, 25 mg L-aC i.p. alternate days 10 days before and 10 days after inoculation (day 10), day 14): 25
surviving animals ([2]; Group 2, 25 mg L-aC i.p. alternate days 10 days before and 10 days after inoculation (day 10), day 18): 25
surviving animals ([2]; Group 2, 25 mg L-aC i.p. alternate days 10 days before and 10 days after inoculation (day 10), day 21): 21
surviving animals ([2]; Group 2, 25 mg L-aC i.p. alternate days 10 days before and 10 days after inoculation (day 10), day 24): 21
surviving animals ([2]; Group 2, 25 mg L-aC i.p. alternate days 10 days before and 10 days after inoculation (day 10), day 27): 21
surviving animals ([2]; Group 2, 25 mg L-aC i.p. alternate days 10 days before and 10 days after inoculation (day 10), day 30): 21
surviving animals ([2]; Group 2, 25 mg L-aC i.p. alternate days 10 days before and 10 days after inoculation (day 10), day 45): 21
animals free from the disease and still alive ([2]; Group 2, of 20 ascites-free animals, day 27 of observation): 18
animals with late ascites that died ([2]; Group 2, of 20 ascites-free animals, within day 27): 2
animals still alive with markedly low or even no ascites ([2]; Group 2, day 27 of observation): 3
animals still alive ([2]; Group 3 (25 mg L-aC i.p. alternate days from day 14, inoculated day 10), day 27 of observation): 16/25
surviving animals ([2]; Group 3, inoculated day 10, 25 mg L-aC i.p. alternate days from day 14 for 10 days, day 01 of observation): 25
surviving animals ([2]; Group 3, inoculated day 10, 25 mg L-aC i.p. alternate days from day 14 for 10 days, day 03): 25
surviving animals ([2]; Group 3, inoculated day 10, 25 mg L-aC i.p. alternate days from day 14 for 10 days, day 05): 25
surviving animals ([2]; Group 3, inoculated day 10, 25 mg L-aC i.p. alternate days from day 14 for 10 days, day 07): 25
surviving animals ([2]; Group 3, inoculated day 10, 25 mg L-aC i.p. alternate days from day 14 for 10 days, day 09): 25

From patent US6673839B1, “Pharmaceutical compositions with antitumour activity” (Universita' Degli Studi di Catania, priority 1998, dated 2004)
